In publication PMC11312813, “An Optimized Peptide Antagonist of CXCR4 Limits Survival of BCR–ABL1-Transformed Cells in Philadelphia-Chromosome-Positive B-Cell Acute Lymphoblastic Leukemia” (International Journal of Molecular Sciences, 2024):
Where a name gives a salt, the structure may show the parent alone.

What was measured:
[1] = system: BCR–ABL1-transformed mouse B cells; assay: Cell proliferation assay (cell trace dye dilution); type: cell-based; details: 10 µM, 48 and 72 h; n = 3
Description: BCR–ABL1 cells were collected at 0.5 × 10^5 cells/well of a 96-well plate and labeled with cell trace far red cell proliferation dye (#C34564, Invitrogen, Dreieich, Germany), according to the manufacturer’s instructions. Labeled cells were plated in 100 μL of complete media and were mixed with equal volume of 2X DMSO or inhibitor-containing media. A small part of the labeled cells was measured in FACS to determine the fluorescence signal on day 0. After specific time periods (48 and 72 h), cells were collected, washed with FACS buffer, and analyzed using LSR-Fortessa (BD Bioscience).

[2] = system: CXCR4; assay: Anti-CXCR4 antibody (clone 12G5) competition assay in SupB15 cells; type: binding, human; details: increasing concentrations (1 nM to 10 µM), n = 2–3
Description: An anti-CXCR4 competition assay was conducted as previously described. […] Afterward, the cells were washed to remove unbound inhibitors and antibody, and measured via FACS for the fluorescence signal of the bound antibody. The fluorescence signal corresponding to only antibody (no inhibitor) was considered to be 100% antibody binding.

[3] = system: TKO-EV cells (untransformed mouse BM pro-B cells); assay: Real-time cell growth analysis by IncuCyte, untransformed TKO-EV cells; details: 1, 5 and 10 µM, 96 h; n = 3
Description: A flat-bottom 96-well plate was coated with 0.01% poly-L ornithine (#P4957, Sigma-Aldrich, Hamburg, Germany) for 1 h at room temperature (RT). BCR–ABL1, SupB15, and 697 cells were counted as 0.5 × 10^5 cells/well, while TKO-BCR–ABL1 and TKO-EV cells as 1 × 10^5 cells/well, which were labeled with IncuCyte Cytotox Red dye (#4632, Sartorius, Ulm, Germany) as per the manufacturer’s protocol. The cells were plated in 100 μL complete medium. […] Plate was prewarmed at 37 °C for 30 min prior to placing in the IncuCyte chamber. Scanning was conducted every two hours for total of 4 days. Images were acquired using a 20X objective in phase contrast and fluorescence mode at 4 images/well and analyzed using the cell-by-cell analysis module of IncuCyte software version 2020B (Essen Bioscience, Ann Arbor, MI, USA).

[4] = system: JNK1/2 phosphorylation; assay: Western blot, basal JNK1/2 phosphorylation in BCR–ABL1 cells; type: cell-based, mouse; details: 10 µM, no CXCL12, 5 min; n = 3
Description: BCR–ABL1 cells were collected as 5 × 10^6 cells/500 μL complete media and treated either with DMSO or different inhibitors in the absence and presence of 100 ng/mL mouse CXCL12 for 5, 15, and 30 min at 37 °C. Cells were then immediately transferred onto ice to stop the reaction and washed with ice-cold PBS. […] For each treatment, 15 μL of cell extract was mixed with 5 μL of 4X Laemmli buffer (reducing), boiled at 95 °C for 10 min, and run on 10% SDS-PAGE. Gels were wet-transferred to PVDF membranes (Millipore, Burlington, MA, USA) and stained with 0.1% ponceau-S solution to check for efficient blotting. The membranes were blocked with 3% BSA solution and incubated with primary antibodies at 4 °C overnight. The next day, primary antibodies were washed, and membranes were probed with horseradish peroxidase (HRP)-conjugated secondary antibodies at RT for 2 h. After washing, the blots were developed using Immobilon ECL Ultra Western HRP Substrate (#WBULS0500, Millipore), and images were acquired with a Fusion SL gel imaging system (Vilber Lourmat, Eberhardzell, Germany).

[5] = system: SupB15 cells; assay: Real-time cell growth by IncuCyte, SupB15; type: cell-based, human; details: 10 µM, 96 h; n = 3
Description: (§1) The cells were plated in 100 μL complete medium.

[6] = system: 697 cells; assay: Real-time cell growth by IncuCyte, 697; type: cell-based, human; details: 10 µM, 96 h; n = 3
Description: as §1

[7] = system: WT mouse BM-derived B cells; assay: Real-time cell growth, normal WT mouse BM-derived B cells; type: cell-based; details: 10 µM JM#170, 10 µM AMD3100, 1 µM Imatinib; 96 h; n = 2
Description: as §1

[8] = system: Imatinib-resistant Ph+ ALL primary xenograft cells; assay: Real-time cell growth by IncuCyte, primary Ph+ ALL xenograft cells; type: cell-based, human; details: 10 µM, 6 days; n = 2
Description: Animals showing clinical symptoms of leukemia or with >75% leukemic blasts in blood were sacrificed, and total splenic cells were isolated and frozen for future use.
For Ph^+ ALL cells isolated from the xenografted NSG mice, frozen cells were thawed and cultured in MEM-alpha (Gibco) media supplemented with 20% FBS and 100 units/mL of penicillin/streptomycin for 5–16 h in a 5% CO2 incubator. Next, the cells were overlaid on 10 mL Ficoll-Paque™PLUS (#17144003, Cytiva, Freiburg, Germany) in 50 mL tubes and centrifuged at 400 g without break for 10 min at RT. The cells were collected from the interface of Ficoll and media and washed once with PBS. Viable cells were counted and plated into previously coated 48-well plates at 4.25 × 10^5 cells/well in 250 μL of media with or without the inhibitors. Scanning was conducted every two hours for total of 6 days in phase contrast mode and analyzed using the cell-by-cell analysis module of IncuCyte software version 2020B (Essen Bioscience).

[9] = system: 697 cells; assay: Flow cytometric cell survival analysis, 697; type: cell-based, human; details: 10 µM; n = 3
Description: Cells treated with either solvent control DMSO or different concentrations of inhibitors for different time points were collected and washed with ice-cold PBS. Cells were then stained with efluor 450-labeled fixable viability dye (FVD, #65-0863-14, eBioscience, San Diego, CA, USA) at 1:1000 dilution at 4 °C or using 50 μg/mL propidium iodide (PI, #P3566, Thermo Fisher, Dreieich, Germany) solution at RT for 15 min in the dark. After washing, labeled cells were resuspended in 100 μL of PBS and acquired using LSR-Fortessa (BD Bioscience, Heidelberg, Germany). FACS data were analyzed with FlowJo software version 10.0.

Compound: c1cc(CN2CCCNCCNCCCNCC2)ccc1CN1CCCNCCNCCCNCC1 [AMD3100, AMD3100 octahydrochloride hydrate, reference compound]
- Proliferation of BCR–ABL1 cells (dye dilution) vs DMSO [1]: significantly reduced the proliferation
- 12G5 antibody binding to CXCR4 [2]: significantly inhibited 12G5 binding
- Survival/growth of TKO-EV cells [3]: neither JM#170 nor AMD3100 had any effect
- Basal JNK phosphorylation vs DMSO [4]: such upregulation was not observed

Compound: ILRWSRK * (Pal)-NH2 [JM#170, lipid-conjugated truncated version of EPI-X4, CXCR4 antagonist]
- Proliferation of BCR–ABL1 cells (dye dilution) vs DMSO [1]: no effect on proliferation
- 12G5 antibody binding to CXCR4 [2]: significantly inhibited 12G5 binding
- SupB15 cell growth vs DMSO [5]: significantly reduced SupB15 cell growth
- 697 cell growth vs DMSO [6]: no effect on the 697 cells
- Growth of normal WT mouse BM-derived B cells [7]: remained inactive against the WT B cells
- Basal JNK phosphorylation vs DMSO [4]: transiently upregulated basal JNK phosphorylation
- Growth of Ph+ ALL xenograft cells vs DMSO [8]: significant growth inhibitory effect
- 697 cell survival vs DMSO [9]: no effect on the survival of these cells
